Where two headings read alike, the source gives them in different places.
What was measured:
Assay type in all cases: cell-based
[1] = biological target: T1, CDK9 (Homo sapiens, UniProt P50750); assay: HiBit Assay Protocol for CDK9 (HIBIT protein quantification, degradation); settings: HEK293-CDK9-Hibit cells, compound treatment for 6 hours; for Dmax: read-out: CDK9 HIBIT Protein Quantification Maximum
T1 construct: host or cells: HEK293-CDK9-Hibit
Procedure, shortened: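 Degradation read-out: luminescence after lytic HiBiT/LgBiT detection in HEK293-CDK9-HiBiT cells exposed 6 h to 10-point, 3-fold compound dilutions. Signal scaled between 0.1% DMSO-treated cells and medium alone; DC50 fitted from the curve.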

[2] = biological target: T2, CDK2 (Homo sapiens, UniProt P24941); assay: HiBit Assay Protocol for CDK2 (HIBIT protein quantification, degradation); settings: HEK293-CDK2-Hibit cells, compound treatment for 6 hours; for DC50: ABS DC50
T2 construct: host or cells: HEK293-CDK2-Hibit
Procedure, shortened: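 DC50 comes from a fitted curve of remaining CDK2-HiBiT luminescence, referenced to DMSO-treated cells and medium-only wells. HEK293-CDK2-HiBiT cells, plated the previous night, received compounds in a 10-point, 3-fold series for 6 h before lysis with LgBiT-containing Nano-Glo HiBiT reagent.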

[3] = biological target: T3, CCNE1 (Homo sapiens, UniProt P24864); assay: HiBit Assay Protocol for CCNE1 (HIBIT protein quantification, degradation); settings: HEK293-CCNE1-Hibit cells, compound treatment for 6 hours
T3 construct: host or cells: HEK293-CCNE1-Hibit
Procedure, shortened: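 Degradation readout: lytic Nano-Glo HiBiT luminescence after 6 h exposure of HEK293-CCNE1-HiBiT cells to 10-point, 3-fold serial dilutions. Signal was scaled between medium-only and DMSO-treated wells, and DC50 came from curve fits.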

T1 sequence (P50750 whole entry): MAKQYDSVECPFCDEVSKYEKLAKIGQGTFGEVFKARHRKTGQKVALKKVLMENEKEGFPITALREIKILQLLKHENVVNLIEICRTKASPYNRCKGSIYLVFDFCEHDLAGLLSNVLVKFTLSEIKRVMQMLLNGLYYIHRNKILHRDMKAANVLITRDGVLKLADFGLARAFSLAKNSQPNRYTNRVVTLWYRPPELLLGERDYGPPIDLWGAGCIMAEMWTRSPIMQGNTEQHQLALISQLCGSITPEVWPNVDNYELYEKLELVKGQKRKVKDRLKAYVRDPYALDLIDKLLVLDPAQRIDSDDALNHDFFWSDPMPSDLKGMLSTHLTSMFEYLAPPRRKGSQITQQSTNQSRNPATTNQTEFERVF
T3 sequence (P24864 whole entry): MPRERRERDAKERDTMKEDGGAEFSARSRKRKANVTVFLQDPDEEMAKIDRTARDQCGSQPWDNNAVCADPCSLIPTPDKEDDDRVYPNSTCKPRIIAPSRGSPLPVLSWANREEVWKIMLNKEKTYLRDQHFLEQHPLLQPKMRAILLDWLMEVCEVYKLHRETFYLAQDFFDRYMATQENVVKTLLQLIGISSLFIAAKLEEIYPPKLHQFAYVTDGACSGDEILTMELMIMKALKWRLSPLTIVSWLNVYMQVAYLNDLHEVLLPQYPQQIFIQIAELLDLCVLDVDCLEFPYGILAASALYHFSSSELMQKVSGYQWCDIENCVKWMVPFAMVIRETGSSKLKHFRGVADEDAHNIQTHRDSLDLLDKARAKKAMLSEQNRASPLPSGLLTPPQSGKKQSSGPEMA

CDK2 HIBIT Protein Quantification Maximum [2] [%]	DC50 [2] [nM]	CCNE1 HIBIT Protein Quantification Maximum [3] [%]	Dmax ([1]; 6 h) [%]	SMILES	Dmax [1] [%]	DC50 ([1]; ABS DC50) [nM]
52	92	47	8	O=C1CCC(N2Cc3cc(C4CN(Cc5cccc(S(=O)(=O)N6CCC(Nc7ncc8c(n7)N([C@@H]7CCC[C@@H](O)C7)C(=O)C87CC7)CC6)c5)C4)ccc3C2=O)C(=O)N1 (some centres unmarked) [Compound 123]	–	–
69	6	46	49	O=C1CCC(N2Cc3cc(N4CCC(N5CC(Oc6cccc(S(=O)(=O)c7ccc(Nc8ncc9c(n8)N([C@@H]8CCC[C@@H](O)C8)C(=O)C98CC8)cc7)c6)C5)CC4)ccc3C2=O)C(=O)N1 (some centres unmarked) [Compound 127]	–	–
32	–	32	34	Cn1c(=O)n(C2CCC(=O)NC2=O)c2cccc(C3CCN(CC4CCN(S(=O)(=O)c5ccc(Nc6ncc7c(n6)N([C@@H]6CCC[C@@H](O)C6)C(=O)C76CC6)cc5)CC4)CC3)c21 (some centres unmarked) [Compound 128]	–	–
51	42	18	17	CC1CCCC1N1C(=O)C2(CC2)c2cnc(NC3CCN(S(=O)(=O)N4CCC5(CCN(C(=O)CCCc6ccc7c(c6)n(C)c(=O)n7C6CCC(=O)NC6=O)C5)C4)CC3)nc21 (centres unmarked) [Compound 129]	–	–
48	–	47	7	O=C1CCC(N2Cc3cc(CN4CC(Oc5cccc(S(=O)(=O)N6CCC(Nc7ncc8c(n7)N([C@@H]7CCC[C@@H](O)C7)C(=O)C87CC7)CC6)c5)C4)ccc3C2=O)C(=O)N1 (stereo partly drawn) [Compound 132, 3-[5-({3-[3-(4-{7′-[(1R,3R)-3-Hydroxycyclohexyl]-6′-oxospiro[cyclopropane-1,5′-pyrrolo[2,3-d]pyrimidin]-2′-ylamino}piperidin-1-ylsulfonyl)phenoxy]azetidin-1-yl}methyl)-1-oxo-3H-isoindol-2-yl]piperidine-2,6-dione]	–	–
52	3.25	38	8	CC1CCCC1N1C(=O)C2(CC2)c2cnc(NC3CCN(S(=O)(=O)N4CC5(CCCN(C6CCN(c7cccc8c7n(C)c(=O)n8C7CCC(=O)NC7=O)C6)C5)C4)CC3)nc21 (centres unmarked) [Compound 137]	–	–
45	–	14	3	CC1CCCC1N1C(=O)C2(CC2)c2cnc(NC3CCN(S(=O)(=O)N4CC5(CCCN(CCOc6cccc7c6n(C)c(=O)n7C6CCC(=O)NC6=O)C5)C4)CC3)nc21 (centres unmarked) [Compound 138, 3-{3-Methyl-4-[2-(2-{4-[7′-(2-methylcyclopentyl)-6′-oxospiro[cyclopropane-1,5′-pyrrolo[2,3-d]pyrimidin]-2′-ylamino]piperidin-1-ylsulfonyl}-2,6-diazaspiro[3.5]nonan-6-yl)ethoxy]-2-oxo-1,3-benzodiazol-1-yl}piperidine-2,6-dione]	–	–
65	3.23	50	11	CC1CCCC1N1C(=O)C2(CC2)c2cnc(NC3CCN(S(=O)(=O)N4CC5(CCCN(C6CCN(c7cccc8c7n(C)c(=O)n8C7CCC(=O)NC7=O)CC6)C5)C4)CC3)nc21 (centres unmarked) [Compound 139]	–	–
71	2.09	20	8	CC1CCCC1N1C(=O)C2(CC2)c2cnc(NC3CCN(S(=O)(=O)C4CCN(CC5CCN(c6ccc7c(c6)n(C)c(=O)n7C6CCC(=O)NC6=O)CC5)C4)CC3)nc21 (centres unmarked) [Compound 140, 3-(3-Methyl-5-{4-[(3-{4-[7′-(2-methylcyclopentyl)-6′-oxospiro[cyclopropane-1,5′-pyrrolo[2,3-d]pyrimidin]-2′-ylamino]piperidin-1-ylsulfonyl}pyrrolidin-1-yl)methyl]piperidin-1-yl}-2-oxo-1,3-benzodiazol-1-yl)piperidine-2,6-dione]	–	–
49	–	25	27	CC1CCCC1N1C(=O)C2(CC2)c2cnc(NC3CCN(S(=O)(=O)N4CCC5(CCN(CCCCCCCOc6cccc7c6n(C)c(=O)n7C6CCC(=O)NC6=O)C5)C4)CC3)nc21 (centres unmarked) [Compound 141, 3-(3-Methyl-4-{[7-(7-{4-[7′-(2-methylcyclopentyl)-6′-oxospiro[cyclopropane-1,5′-pyrrolo[2,3-d]pyrimidin]-2′-ylamino]piperidin-1-ylsulfonyl}-2,7-diazaspiro[4.4]nonan-2-yl)heptyl]oxy}-2-oxo-1,3-benzodiazol-1-yl)piperidine-2,6-dione]	–	–
53	36.1	26	5	CC1CCCC1N1C(=O)C2(CC2)c2cnc(NC3CCN(S(=O)(=O)N4CC5(CCCCN5CC5CCN(c6cccc7c6n(C)c(=O)n7C6CCC(=O)NC6=O)CC5)C4)CC3)nc21 (centres unmarked) [Compound 142]	–	–

SMILES	CDK2 HIBIT Protein Quantification Maximum [2] [%]	DC50 [2] [nM]	CCNE1 HIBIT Protein Quantification Maximum [3] [%]	Dmax ([1]; 6 h) [%]	Dmax [1] [%]	DC50 ([1]; ABS DC50) [nM]
O=C1CCC(N2Cc3cc(N4CCN(CC5CCN(c6cccc(S(=O)(=O)N7CCC(Nc8ncc9c(n8)N([C@@H]8CCC[C@@H](O)C8)C(=O)C98CC8)CC7)c6)CC5)CC4)ccc3C2=O)C(=O)N1 (stereo partly drawn) [Compound 122, 3-{5-[4-({1-[3-(4-{7′-[(1R,3R)-3-hydroxycyclohexyl]-6′-oxospiro[cyclopropane-1,5′-pyrrolo [2,3-d]pyrimidin]-2′-ylamino}piperidin-1-ylsulfonyl)phenyl]piperidin-4-yl}methyl)piperazin-1-yl]-1-oxo-3H-isoindol-2-yl}piperidine-2,6-dione]	79	7	25	–	22	–
O=C1CCC(N2Cc3cc(N4CCC(CN5CCN(c6cccc(S(=O)(=O)c7ccc(Nc8ncc9c(n8)N([C@@H]8CCC[C@@H](O)C8)C(=O)C98CC8)cc7)c6)CC5)CC4)ccc3C2=O)C(=O)N1 (stereo partly drawn) [Compound 124, 3-{5-[4-({4-[3-(4-{7′-[(1R,3R)-3-hydroxycyclohexyl]-6′-oxospiro [cyclopropane-1,5′-pyrrolo[2,3-d]pyrimidin]-2′-ylamino}benzenesulfonyl)phenyl]piperazin-1-yl}methyl)piperidin-1-yl]-1-oxo-3H-isoindol-2-yl}piperidine-2,6-dione]	61	6	48	–	57	73.6
Cn1c(=O)n(C2CCC(=O)NC2=O)c2cccc(N3CCC(Cn4cc(S(=O)(=O)N5CCC(Nc6ncc7c(n6)N([C@@H]6CCC[C@@H](O)C6)C(=O)C76CC6)CC5)cn4)CC3)c21 (stereo partly drawn) [Compound 130, 3-(4-(4-((4-((4-((7′-((1R,3R)-3-Hydroxycyclohexyl)-6′-oxo-6′,7′-dihydrospiro[cyclopropane-1,5′-pyrrolo[2,3-d]pyrimidin]-2′-yl)amino)piperidin-1-yl)sulfonyl)-1H-pyrazol-1-yl)methyl)piperidin-1-yl)-3-methyl-2-oxo-2,3-dihydro-1H-benzo[d]imidazol-1-yl)piperidine-2,6-dione]	76	15.8	34	–	13	–
O=C1CCC(N2Cc3cc(N4CCC(N5CC(Oc6cccc(S(=O)(=O)N7CCC(Nc8ncc9c(n8)N([C@@H]8CCC[C@@H](O)C8)C(=O)C98CC8)CC7)c6)C5)CC4)ccc3C2=O)C(=O)N1 (stereo partly drawn) [Compound 134, 3-[5-(4-{3-[3-(4-{7′-[(1R,3R)-3-Hydroxycyclohexyl]-6′-oxospiro[cyclopropane-1,5′-pyrrolo[2,3-d]pyrimidin]-2′-ylamino}piperidin-1-ylsulfonyl)phenoxy]azetidin-1-yl}piperidin-1-yl)-1-oxo-3H-isoindol-2-yl]piperidine-2,6-dione]	74	4.22	18	–	31	–
CC1CCCC1N1C(=O)C2(CC2)c2cnc(NC3CCN(S(=O)(=O)N4CC5(CCCN(C6CCCN(c7cccc8c7n(C)c(=O)n8C7CCC(=O)NC7=O)C6)C5)C4)CC3)nc21 (centres unmarked) [Compound 135, 3-{3-Methyl-4-[3-(2-{4-[7′-(2-methylcyclopentyl)-6′-oxospiro[cyclopropane-1,5′-pyrrolo[2,3-d]pyrimidin]-2′-ylamino]piperidin-1-ylsulfonyl}-2,6-diazaspiro[3.5]nonan-6-yl)piperidin-1-yl]-2-oxo-1,3-benzodiazol-1-yl}piperidine-2,6-dione]	54	16.3	8	–	8	–
CC1CCCC1N1C(=O)C2(CC2)c2cnc(NC3CCN(S(=O)(=O)N4CC5(CCCN(c6cccc(-c7cccc8c7n(C)c(=O)n8C7CCC(=O)NC7=O)c6)C5)C4)CC3)nc21 (centres unmarked) [Compound 136, 3-{3-Methyl-4-[3-(2-{4-[7′-(2-methylcyclopentyl)-6′-oxospiro[cyclopropane-1,5′-pyrrolo[2,3-d]pyrimidin]-2′-ylamino]piperidin-1-ylsulfonyl}-2,6-diazaspiro[3.5]nonan-6-yl)phenyl]-2-oxo-1,3-benzodiazol-1-yl}piperidine-2,6-dione]	61	131	7	–	14	–
